Data: patent US20240366543A1, “METHODS OF TREATING METHYLMALONIC ACIDEMIA AND PROPIONIC ACIDEMIA” (HemoShear Therapeutics, Inc., priority 2021, published 2024)

Test: Phase 2 study preliminary plasma pharmacokinetics in PA/MMA subjects
Type: in vivo, human
Conditions: dose range of 1 mg/kg to 30 mg/kg, once or twice daily
Description: Part A is the dose escalation phase to assess the initial safety and to confirm the pharmacologic activity of Compound 5 in subjects with PA and MMA. Screening for eligibility took place within 28 days of enrollment. All subjects were initially evaluated during a 4-week run-in period followed by within-subject dose escalation of 3 doses (1, 3, and 10 mg/kg QD of sodium 2,2-dimethylbutanoate); dose escalation interval of 4 weeks) to check for improvement in disease-related biomarkers.
Plasma will be analyzed by liquid chromatography with tandem mass spectrometry (LC-MS/MS) with a lower limit of quantitation of 0.100 μg/mL. Samples collected for analyses of Compound 5 (plasma/serum/whole blood)] concentration may also be used to evaluate safety or efficacy aspects related to concerns arising during or after the study.
Preliminary pharmacokinetics (PK) data from the first two subjects of Study described in Examples 7-8 was evaluated at 1 mg/kg, 3 mg/kg and 10 mg/kg of Compound 5 dosed once daily (QD).

In the case of `CCC(C)(C)C(=O)[O-].[Na+]` [Compound 5A, 2,2-dimethylbutyric acid sodium salt], the “Blood plasma concentrations versus dose” value is reported as “dose proportional”.
